Results taken from ChEMBL document CHEMBL1909046, “DrugMatrix in vitro pharmacology data”.

Assays:
[1] = molecular target: Protein phosphatase 3 catalytic subunit alpha (Homo sapiens, UniProt Q08209); design: species or system Escherichia coli;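 also: inhibition of calcineurin (PP2B) enzyme activity, measured with DiFMUP as the substrate; in other assays of this panel Not Active means under 50% inhibition at 10 µM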
[2] = DRUGMATRIX: Tumor Necrosis Factor (TNF), Non-Selective radioligand binding (ligand: [125I] TNF-alpha); type: cell membranes, Membrane; conditions: u-937; Not Active = under 50% inhibition at 10 µM
Adenosine receptor A1 = molecular target: T1, Adenosine receptor A1 (Homo sapiens, UniProt P30542); type: cell membranes, CHO, Membrane; conditions: cho;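 also: radioligand binding assay at the adenosine A1 receptor, with DPCPX serving as the labelled ligand; in other assays of this panel Not Active means under 50% inhibition at 10 µM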
T1 sequence (P30542 whole entry): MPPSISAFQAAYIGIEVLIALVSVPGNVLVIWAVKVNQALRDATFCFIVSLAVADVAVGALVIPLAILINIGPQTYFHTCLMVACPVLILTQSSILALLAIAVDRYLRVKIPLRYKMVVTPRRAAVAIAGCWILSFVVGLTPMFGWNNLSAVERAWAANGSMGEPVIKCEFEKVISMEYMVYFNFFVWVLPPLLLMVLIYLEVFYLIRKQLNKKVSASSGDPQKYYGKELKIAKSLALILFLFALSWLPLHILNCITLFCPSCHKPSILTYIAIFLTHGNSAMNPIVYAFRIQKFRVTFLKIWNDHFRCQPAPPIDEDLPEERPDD

[3] = DRUGMATRIX: Phosphodiesterase PDE4 enzyme inhibition (substrate: [3H]cAMP + cAMP); conditions: u-937; Not Active = under 50% inhibition at 10 µM
[4] = molecular target: T2, Alpha-1B adrenergic receptor (Rattus norvegicus, UniProt P15823); experiment: DRUGMATRIX: Alpha-1B adrenergic receptor radioligand binding (ligand: prazosin); type: cell membranes, Wistar, Liver, Membrane; conditions: Not Active = under 50% inhibition at 10 µM
T2 sequence (P15823 whole entry): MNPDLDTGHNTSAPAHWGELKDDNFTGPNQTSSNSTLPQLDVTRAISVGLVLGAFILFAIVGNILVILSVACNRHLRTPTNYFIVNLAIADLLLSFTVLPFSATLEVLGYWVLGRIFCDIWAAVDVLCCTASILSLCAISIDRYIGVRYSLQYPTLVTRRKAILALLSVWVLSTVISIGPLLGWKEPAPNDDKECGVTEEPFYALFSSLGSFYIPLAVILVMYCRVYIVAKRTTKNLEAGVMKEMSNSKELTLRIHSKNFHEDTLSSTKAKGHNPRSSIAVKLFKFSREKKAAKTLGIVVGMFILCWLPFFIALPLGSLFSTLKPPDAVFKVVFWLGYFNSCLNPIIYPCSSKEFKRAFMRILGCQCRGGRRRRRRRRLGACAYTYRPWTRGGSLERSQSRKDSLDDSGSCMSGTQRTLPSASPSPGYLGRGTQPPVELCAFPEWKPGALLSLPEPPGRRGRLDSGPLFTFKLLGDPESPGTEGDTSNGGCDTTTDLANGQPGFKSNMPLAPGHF

Substance-K receptor = molecular target: T3, Substance-K receptor (Homo sapiens, UniProt P21452); type: cell membranes, CHO, Membrane; conditions: cho; also: in other assays of this panel Not Active means under 50% inhibition at 10 µM
T3 sequence (P21452 whole entry): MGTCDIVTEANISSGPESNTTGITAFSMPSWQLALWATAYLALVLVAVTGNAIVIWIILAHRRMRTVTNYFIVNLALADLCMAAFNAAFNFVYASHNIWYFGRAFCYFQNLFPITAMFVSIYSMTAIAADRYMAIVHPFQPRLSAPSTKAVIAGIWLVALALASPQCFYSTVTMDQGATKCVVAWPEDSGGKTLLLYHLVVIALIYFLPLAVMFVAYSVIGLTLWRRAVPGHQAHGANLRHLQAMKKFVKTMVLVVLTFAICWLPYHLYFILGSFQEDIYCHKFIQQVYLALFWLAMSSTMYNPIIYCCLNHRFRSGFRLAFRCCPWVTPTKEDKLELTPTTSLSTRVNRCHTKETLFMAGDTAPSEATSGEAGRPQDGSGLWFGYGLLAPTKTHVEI

Q: Which IC50 [1] does the source give for `N[C@@H](Cn1ccc(=O)c(O)c1)C(=O)O` [L-MIMOSINE] here?
A: Not Active

Q: What about the IC50 [2] of the same compound?
A: Not Active

Q: And the Ki [2]?
A: Not Active

Q: And the IC50 (Adenosine receptor A1)?
A: Not Active

Q: What about the IC50 [3] of the same compound?
A: Not Active

Q: What about the Ki [3] of the same compound?
A: Not Active

Q: And the IC50 [4]?
A: Not Active

Q: What about the IC50 (Substance-K receptor) of the same compound?
A: Not Active

Q: For `C[N+](C)(C)C[C@H](O)CC(=O)[O-]` [LEVOCARNITINE], which IC50 [1] is on record?
A: Not Active

Q: What about the IC50 [2] of the same compound?
A: Not Active

Q: And the Ki [2]?
A: Not Active

Q: And the IC50 (Adenosine receptor A1)?
A: Not Active

Q: What about the IC50 [3] of the same compound?
A: Not Active

Q: And the Ki [3]?
A: Not Active

Q: What about the IC50 [4] of the same compound?
A: Not Active

Q: What about the IC50 (Substance-K receptor) of the same compound?
A: Not Active

Q: What does the source list for `C[C@H]1COc2c(N3CCN(C)CC3)c(F)cc3c(=O)c(C(=O)O)cn1c23.C[C@H]1COc2c(N3CCN(C)CC3)c(F)cc3c(=O)c(C(=O)O)cn1c23.O` [LEVOFLOXACIN]?
A: IC50 [1]: Not Active; IC50 [2]: Not Active; Ki [2]: Not Active; IC50 (Adenosine receptor A1): Not Active; IC50 [3]: Not Active; Ki [3]: Not Active; IC50 [4]: Not Active; IC50 (Substance-K receptor): Not Active

Q: For `CCn1cc(C(=O)O)c(=O)c2cc(F)c(N3CCNC(C)C3)c(F)c21` (stereo not given) [LOMEFLOXACIN], which IC50 [1] is on record?
A: Not Active

Q: And the IC50 [2]?
A: Not Active

Q: What about the Ki [2] of the same compound?
A: Not Active

Q: And the IC50 (Adenosine receptor A1)?
A: Not Active

Q: And the IC50 [3]?
A: Not Active

Q: And the Ki [3]?
A: Not Active

Q: And the IC50 [4]?
A: Not Active

Q: And the IC50 (Substance-K receptor)?
A: Not Active

Q: What does the source list for `CN1CCCC(CN2c3ccccc3Sc3ccccc32)C1` (stereo not given) [MEPAZINE]?
A: IC50 [1]: Not Active; IC50 [2]: Not Active; Ki [2]: Not Active; IC50 (Adenosine receptor A1): Not Active; IC50 [3]: Not Active; Ki [3]: Not Active; IC50 ([4]; read-out: IC50): 61 nM; Ki ([4]; read-out: Ki): 34 nM; IC50 (Substance-K receptor): Not Active

Q: For `Cc1cccc(C)c1NC(=O)C1CCCCN1C` (stereo not given) [MEPIVACAINE], which IC50 [1] is on record?
A: Not Active

Q: What about the IC50 [2] of the same compound?
A: Not Active

Q: And the Ki [2]?
A: Not Active

Q: And the IC50 (Adenosine receptor A1)?
A: Not Active

Q: What about the IC50 [3] of the same compound?
A: Not Active

Q: And the Ki [3]?
A: Not Active

Q: What about the IC50 [4] of the same compound?
A: Not Active

Q: And the IC50 (Substance-K receptor)?
A: Not Active

Q: With `CN(C)C(=N)NC(=N)N` [METFORMIN] as the compound, how does the IC50 [1] read?
A: Not Active

Q: What about the IC50 [2] of the same compound?
A: Not Active

Q: And the Ki [2]?
A: Not Active

Q: And the IC50 (Adenosine receptor A1)?
A: Not Active

Q: And the IC50 [3]?
A: Not Active

Q: And the Ki [3]?
A: Not Active

Q: What about the IC50 [4] of the same compound?
A: Not Active

Q: What about the IC50 (Substance-K receptor) of the same compound?
A: Not Active

Q: Which IC50 [1] does the source give for `CC(C)(C)NCC(O)COc1cccc2c1CC(O)C(O)C2` (stereo not given) [NADOLOL] here?
A: Not Active

Q: What about the IC50 [2] of the same compound?
A: Not Active

Q: And the Ki [2]?
A: Not Active

Q: And the IC50 (Adenosine receptor A1)?
A: Not Active

Q: What about the IC50 [3] of the same compound?
A: Not Active

Q: And the Ki [3]?
A: Not Active

Q: And the IC50 [4]?
A: Not Active

Q: And the IC50 (Substance-K receptor)?
A: Not Active

Q: For `C[C@]12CC[C@H]3[C@@H](CCC4=CC(=O)CC[C@@H]43)[C@@H]1CC[C@@H]2O` [NANDROLONE], which IC50 [1] is on record?
A: Not Active

Q: And the IC50 [2]?
A: Not Active

Q: What about the Ki [2] of the same compound?
A: Not Active

Q: And the IC50 (Adenosine receptor A1)?
A: Not Active

Q: And the IC50 [3]?
A: Not Active

Q: And the Ki [3]?
A: Not Active

Q: What about the IC50 [4] of the same compound?
A: Not Active

Q: And the IC50 (Substance-K receptor)?
A: Not Active

Q: Which IC50 [1] does the source give for `C[C@@H]1C/C=C/C=C/C=C/C=C/[C@H](O[C@@H]2O[C@H](C)[C@@H](O)[C@H](N)[C@@H]2O)C[C@@H]2O[C@](O)(C[C@@H](O)C[C@H]3O[C@@H]3/C=C/C(=O)O1)C[C@H](O)[C@H]2C(=O)O` [NATAMYCIN] here?
A: Not Active

Q: And the IC50 [2]?
A: Not Active

Q: What about the Ki [2] of the same compound?
A: Not Active

Q: What about the IC50 (Adenosine receptor A1) of the same compound?
A: Not Active

Q: What about the IC50 [3] of the same compound?
A: Not Active

Q: What about the Ki [3] of the same compound?
A: Not Active

Q: What about the IC50 [4] of the same compound?
A: Not Active

Q: And the IC50 (Substance-K receptor)?
A: Not Active

Q: What does the source list for `CN(C)C(=O)Oc1cccc([N+](C)(C)C)c1.[Br-]` [NEOSTIGMINE BROMIDE]?
A: IC50 [1]: Not Active; IC50 [2]: Not Active; Ki [2]: Not Active; IC50 (Adenosine receptor A1): Not Active; IC50 [3]: Not Active; Ki [3]: Not Active; IC50 [4]: Not Active; IC50 (Substance-K receptor): Not Active

Q: With `NC(=O)c1cccnc1` [NIACINAMIDE] as the compound, how does the IC50 [1] read?
A: Not Active

Q: What about the IC50 [2] of the same compound?
A: Not Active

Q: And the Ki [2]?
A: Not Active

Q: And the IC50 (Adenosine receptor A1)?
A: Not Active

Q: And the IC50 [3]?
A: Not Active

Q: And the Ki [3]?
A: Not Active

Q: What about the IC50 [4] of the same compound?
A: Not Active

Q: And the IC50 (Substance-K receptor)?
A: Not Active

Q: With `CS(=O)(=O)Nc1ccc([N+](=O)[O-])cc1Oc1ccccc1` [NIMESULIDE] as the compound, how does the IC50 [1] read?
A: Not Active

Q: What about the IC50 [2] of the same compound?
A: Not Active

Q: What about the Ki [2] of the same compound?
A: Not Active

Q: And the IC50 (Adenosine receptor A1)?
A: Not Active

Q: And the IC50 [3]?
A: Not Active

Q: What about the Ki [3] of the same compound?
A: Not Active

Q: What about the IC50 [4] of the same compound?
A: Not Active

Q: And the IC50 (Substance-K receptor)?
A: Not Active
